# Read-outs that look alike come from different tables or passages of the source.
# Tests used:
# Mut6 cells (TD-NSC) = assay: luminescence-based Celltiter-Glo cell viability assay (ATP levels) on Mut6 tumor derived neuronal stem cells; parameters: species or system mouse; settings: ATP activity as measure of viability, 96 hours, read-out: EC50 (TD-NSC)
# From the text: A mouse colony with 100% incidence of GBM and with conditional knockout of p53, pTEN and NF1 genes (Mut6; glioblastoma) was used to isolate primary neuronal stem cells from GBM tumors cultured in 5% Oxygen and in serum free media with defined growth factors. Primary cells from multiple tumors were pooled for high throughput screening with controls against the University of Texas Southwestern (UTSW) compound file, which encompasses ˜200,000 synthetic compounds that represent a large chemical space from several commercial vendors, including 1200 marketed drugs from the Prestwick Chemical Library®, and 600 compounds that went to pre-clinical tests from the NIH library.
# A luminescence-based Celltiter-Glo® assay was performed to measure cell viability, using ATP levels as the readout. In brief, opaque-walled multiwell plates with Mut6 cells in culture medium (25 μl per well, 384-well plates) were prepared. Control wells containing medium without cells were prepared to obtain a value for background luminescence. Test compounds were added to experimental wells, and incubated according to culture protocol. The plate and its contents were incubated at 37° C., 5% […] for 96 hours. An ATP standard curve was generated immediately prior to adding the CellTiter-Glo® Reagent. A volume of CellTiter-Glo® Reagent equal to the volume of cell culture medium present in each well (25 μl of reagent to 25 μl of medium containing cells for a 384-well plate) was added. The contents were mixed for 2 minutes on an orbital shaker to induce cell lysis. The plate was allowed to incubate at room temperature for 10 minutes to stabilize the luminescent signal and luminescence recorded. (e.g. GloMax®, Lumistar, SPECTROstar, PHERAstar FS).
# Compound 4C12 served as initial lead compound for analog development and for additional studies. […] See Wager, T T et al, “Moving beyond rules: the development of a central nervous system multi-parameter-optimization (CNS MPO) approach to enable alignment of drug-like properties,” ACS Chem. Neurosci. 1(6): 435-49 (2010). IC50 curves for the analog compounds plotted as ATP activity (y axis, a measure of viability) vs. concentration (nM) (x-axis) are shown in FIG. 9.
# [1] = S9 Metabolism Assay (half-life by substrate depletion); assay type: in vitro ADME; settings: female, ICR/CD-1, S9 fractions, pH 7.5; mouse S9, 2 μM compound; time plotted in min; read-out: S9 T1/2
# Protocol: Female ICR/CD-1 mouse S9 fractions were purchased from Celsis/In Vitro Technologies (Baltimore, Md.). 25 μl (0.5 mg) of S9 protein was added to a 15 ml glass screw cap tube. 350 μl of a 50 mM Tris, pH 7.5 solution, containing the compound of interest was added on ice. The final concentration of compound after addition of all reagents was 2 μM. 125 μl of an NADPH-regenerating system (1.7 mg/ml NADP, 7.8 mg/ml glucose-6-phosphate, 6 U/ml glucose-6-phosphate dehydrogenase in 2% w/v NaHCO3/10 mm MgCl2) was added for analysis of Phase I metabolism. Uridine 5′-diphospho-α-D-glucuronic acid (UDPGA 1.9 mg/ml) and 3′-phosphoadenosine-5′-phosphosulphate (PAPS, 100 mg/ml) were additionally added for phase II reactions. The tube was then placed in a 37° C. shaking water bath. At varying time points after addition of phase I and phase II cofactors, the reaction was stopped by the addition of 0.5 ml of methanol containing 0.2% formic acid and 200 ng/ml internal standard (either n-benzylbenzamide or tolbutamide, Sigma, St. Louis, Mo.). The samples were incubated 10′ at RT and then spun at 16,100×g for 5 min in a microcentrifuge. The supernatant was analyzed by LC-MS/MS. Metabolism of 7-ethoxycoumarin was used to monitor […] performance. Analytical methods were developed for each compound using an Applied Biosystems (Foster City, Calif.) 4000-QTrap, a combination triple quadrupole/ion trap instrument. The parent ion and the two most prominent daughter ions were followed to confirm compound identity, although only the most abundant daughter was used for quantitation. A Shimadzu (Columbia, Md.) Prominence LC with Agilent C18 XDB column (5 micron packing; 50×4.6 mm) was used for chromatography.
# The method described in McNaney, et al (McNaney, C A, D M Drexler, S Hnatyshyn, T A Zvyaga, J O Knipe, J V Belcastro, and M Sanders. 2008. An automated liquid chromatography-mass spectrometry process to determine metabolic stability half-life and intrinsic clearance of drug candidates by substrate depletion. Assay and Drug Development Technologies 6:121-129. Determination of Plasma and Brain Pharmacokinetics) was used with modification for determination of metabolic stability half-life by substrate depletion. A “% remaining” value was used to assess metabolic stability of a compound over time. The LC/MS/MS peak area of the incubated sample at each time point was divided by the LC/MS/MS peak area of the time 0 (TO) sample and multiplied by 100. The natural Log (LN) of the % remaining of compound was then plotted versus time (in min) and a linear regression curve plotted going through y-intercept at LN(100).
SMILES,"EC50 (Mut6 cells (TD-NSC); Mus musculus, 96 h)",half-life at 2 μM [1],EC50 (Mut6 cells (TD-NSC))
"CCN1CCC[C@@H]1CNC(=O)c1ccc(Sc2ccc(F)cc2)c([N+](=O)[O-])c1 [DS-1-031, (R)—N-((1-ethylpyrrolidin-2-yl)methyl)-4-((4-fluorophenyl)thio)-3-nitrobenzamide]",33 nM,1.89 h,–
"CCN1CCCC1CNC(=O)c1ccc(Sc2ccc(F)cc2)c([N+](=O)[O-])c1 (stereo not shown) [DS-1-033, N-((1-ethylpyrrolidin-2-yl)methyl)-4-((4-fluorophenyl)thio)-3-nitrobenzamide]",–,1.98 h,45 nM
"CCN(CC)CCNC(=O)c1ccc(Sc2ccc(F)cc2)c([N+](=O)[O-])c1 [DS-1-043, N-(2-(diethylamino)ethyl)-4-((4-fluorophenyl)thio)-3-nitrobenzamide]",–,0.75 h,22 nM
"CCN1CCC[C@H]1CNC(=O)c1ccc(Sc2ccc(F)cc2)c([N+](=O)[O-])c1 [DS-1-053, (S)—N-((1-ethylpyrrolidin-2-yl)methy)-4-((4-fluorophenyl)thio)-3-nitrobenzamide]",31 nM,1.1 h,–
"CCN1CCCC1CNC(=O)c1ccc(Sc2ccccc2)c([N+](=O)[O-])c1 (stereo not shown) [DS-1-055, N-((1-ethylpyrrolidin-2-yl)methyl)-3-nitro-4-(phenylthio)benzamide]",50 nM,0.59 h,–
"CN1CCCC1CCNC(=O)c1ccc(Sc2ccc(F)cc2)c([N+](=O)[O-])c1 (stereo not shown) [DS-1-061, 4-((4-fluorophenyl)thio)-N-(2-(1-methylpyrrolidin-2-yl)ethyl)-3-nitrobenzamide]",79 nM,1.75 h,–
"O=C(NCCN1CCCC1)c1ccc(Sc2ccc(F)cc2)c([N+](=O)[O-])c1 [DS-1-063, 4-((4-fluorophenyl)thio)-3-nitro-N-(2-(pyrrolidin-1-yl)ethyl)benzamide]",52 nM,3.12 h,–
"CCN1CCCC1CNC(=O)c1ccc(Sc2cccc(F)c2)c([N+](=O)[O-])c1 (stereo not shown) [DS-1-069, N-((1-ethylpyrrolidin-2-yl)methyl)-4-((3-fluorophenyl)thio)-3-nitrobenzamide]",88 nM,0.587 h,–
"CCN1CCCC1CNCc1ccc(Sc2ccc(F)cc2)c([N+](=O)[O-])c1 (stereo not shown) [DS-1-079, 1-(1-ethylpyrrolidin-2-yl)-N-(4-((4-fluorophenyl)thio)-3-nitrobenzyl)methanamine]",36 nM,0.357 h,–
"O=C(NC[C@@H]1CCCN1)c1ccc(Sc2ccc(F)cc2)c([N+](=O)[O-])c1 [DS-1-085, (S)-4-((4-fluorophenyl)thio)-3-nitro-N-(pyrrolidin-2-ylmethyl)benzamide]",132 nM,4 h,–
"CCN1CCCC1CNC(=O)c1ccc(Sc2ccc(F)cc2F)c([N+](=O)[O-])c1 (stereo not shown) [DS-1-125, 4-((2,4-difluorophenyl)thio)-N-((1-ethylpyrrolidin-2-yl)methyl)-3-nitrobenzamide]",51 nM,1.46 h,–
"CCN1CCCC1CNC(=O)c1ccc(Sc2ccncc2)c([N+](=O)[O-])c1 (stereo not shown) [DS-1-129, N-((1-ethylpyrrolidin-2-yl)methyl)-3-nitro-4-(pyridin-4-ylthio)benzamide]",150 nM,1.54 h,–
"CCN1CCCC1CNC(=O)c1ccc(SCc2ccc(F)cc2)c([N+](=O)[O-])c1 (stereo not shown) [DS-1-131, N-((1-ethylpyrrolidin-2-yl)methyl)-4-((4-fluorobenzyl)thio)-3-nitrobenzamide]",35 nM,1.6 h,–
"CCN1CCCC1CNC(=O)c1ccc(Sc2ccc(OC)cc2)c([N+](=O)[O-])c1 (stereo not shown) [DS-1-133, N-((1-ethylpyrrolidin-2-yl)methyl)-4-((4-methoxyphenyl)thio)-3-nitrobenzamide]",62 nM,0.802 h,–
"CCN1CCCC1CNC(=O)c1ccc(Sc2ccc(Cl)cc2)c([N+](=O)[O-])c1 (stereo not shown) [DS-1-163, 4-((4-chlorophenyl)thio)-N-((1-ethylpyrrolidin-2-yl)methyl)-3-nitrobenzamide]",51 nM,1.48 h,–
"CCN1CCCC1CNC(=O)c1ccc(Sc2ccc(F)cc2)c(C#N)c1 (stereo not shown) [DS-1-227, 3-cyano-N-((1-ethylpyrrolidin-2-yl)methyl)-4-((4-fluorophenyl)thio)benzamide]",53 nM,1.08 h,–
"CC1C2CCCN2CCN1C(=O)c1ccc(Sc2ccc(F)cc2)c([N+](=O)[O-])c1 (stereo not shown) [DS-1-279, (4-((4-fluorophenyl)thio)-3-nitrophenyl)(1-methylhexahydropyrrolo[1,2-a]pyrazin-2(1H)-yl)methanone]",58 nM,0.445 h,–
"CCN1CCCC1CNC(=O)c1ccc(Oc2ccc(F)cc2)c(C#N)c1 (stereo not shown) [DS-1-311, 3-cyano-N-((1-ethylpyrrolidin-2-yl)methyl)-4-(4-fluorophenoxy)benzamide]",–,1.96 h,–
"N#Cc1cc(C(=O)NCCN2CCOCC2)ccc1Sc1ccc(F)cc1 [DS-2-027, 3-cyano-4-((4-fluorophenyl)thio)-N-(2-morpholinoethyl)benzamide]",–,0.668 h,–
"CCN1CCCC1CNC(=O)c1ccc(Sc2ccccc2CO)c([N+](=O)[O-])c1 (stereo not shown) [JCH-149, N-((1-ethylpyrrolidin-2-yl)methyl)-4-((2-(hydroxymethyl)phenyl)thio)-3-nitrobenzamide]",154 nM,–,–
"C#CCN(CC1CCCN1CC)C(=O)c1ccc(Sc2ccc(F)cc2)c([N+](=O)[O-])c1 (stereo not shown) [ww2-292, N-((1-ethylpyrrolidin-2-yl)methyl)-4-((4-fluorophenyl)thio)-3-nitro-N-(prop-2-yn-1-yl)benzamide]",531 nM,–,–
CCN1CCCC1CNC(=O)c1ccc(OCc2ccc(C3(C(F)(F)F)N=N3)cc2)c([N+](=O)[O-])c1 (stereo not shown) [ww3-13],> 1000 nM,–,–
"CCN1CCCC1CNC(=O)c1ccc(Sc2ccc(F)cc2)c(N=[N+]=[N-])c1 (stereo not shown) [ww3-57, 3-azido-N-((1-ethylpyrrolidin-2-yl)methyl)-4-((4-fluorophenyl)thio)benzamide]",63 nM,–,–
"CCN(CCO)CCNC(=O)c1ccc(Sc2ccc(F)cc2)c([N+](=O)[O-])c1 [ww3-62, N-(2-(ethyl(2-hydroxyethyl)amino)ethyl)-4-((4-fluorophenyl)thio)-3-nitrobenzamide]",57 nM,–,–
"C#CCN(CC)CCNC(=O)c1ccc(Sc2ccc(F)cc2)c(N=[N+]=[N-])c1 [ww3-77, 3-azido-N-(2-(ethyl(prop-2-yn-1-yl)amino)ethyl)-4-((4-fluorophenyl)thio)benzamide]",239 nM,–,–
"C#CCN(CCNC(=O)c1ccc(Sc2ccc(F)cc2)c([N+](=O)[O-])c1)CCOC(=O)c1ccc(C(=O)c2ccccc2)cc1 [ww3-80, 2-((2-(4-((4-fluorophenyl)thio)-3-nitrobenzamido)ethyl)(prop-2-yn-1-yl)amino)ethyl 4-benzoylbenzoate]",161 nM,–,–
